Measurements from the supplement of paper PMC11061612.

Experiments:
Carboplatin = compound: C1CC(C1)(C(=O)[O-])C(=O)[O-].N.N.[Pt+2] [Carboplatin]; conditions: max 10 µM
Procedure, shortened: (§1)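 Plates with 1536 wells received cancer cell lines in 7.5 μl of DMEM/F12 or RPMI containing 10% FBS. After 24 hours at 37°C and 5% CO2, cells were dosed for 72 hours with final DMSO typically 0.2%, and viability was read by CellTiter-Glo 2.0 luminescence scaled between blank-well and DMSO-well means. The single-agent IC50 was taken from a logistic fit of the dose responses made with a non-linear mixed effects model, that logistic curve having two parameters.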

AZD5363 = compound: C1CN(CCC1(C(=O)N[C@@H](CCO)C2=CC=C(C=C2)Cl)N)C3=NC=NC4=C3C=CN4 [AZD5363]; conditions: max 10 µM
Procedure, shortened: as §1

AZD1775 = compound: C=CCn1c(=O)c2cnc(Nc3ccc(N4CCN(C)CC4)cc3)nc2n1-c1cccc(C(C)(C)O)n1 [AZD1775]; conditions: max 3 µM
Procedure, shortened: as §1

Trametinib = compound: CC(=O)Nc1cccc(-n2c(=O)n(C3CC3)c(=O)c3c(Nc4ccc(I)cc4F)n(C)c(=O)c(C)c32)c1 [Trametinib]; conditions: max 1 µM
Procedure, shortened: as §1

Paclitaxel = compound: CC(=O)O[C@H]1C(=O)[C@@]2(C)[C@H]([C@H](OC(=O)c3ccccc3)[C@]3(O)C[C@H](OC(=O)[C@H](O)[C@@H](NC(=O)c4ccccc4)c4ccccc4)C(C)=C1C3(C)C)[C@]1(OC(C)=O)CO[C@@H]1C[C@@H]2O [Paclitaxel]; conditions: max 3 µM
Procedure, shortened: as §1

Palbociclib = compound: CC(=O)c1c(C)c2cnc(Nc3ccc(N4CCNCC4)cn3)nc2n(C2CCCC2)c1=O [Palbociclib]; conditions: max 10 µM
Procedure, shortened: as §1

AZD1390 = compound: CC(C)n1c(=O)n(C)c2cnc3cc(F)c(-c4ccc(OCCCN5CCCCC5)nc4)cc3c21 [AZD1390]; conditions: max 0.3 µM
Procedure, shortened: as §1

Venetoclax = compound: CC1(C)CCC(CN2CCN(c3ccc(C(=O)NS(=O)(=O)c4ccc(NCC5CCOCC5)c([N+](=O)[O-])c4)c(Oc4cnc5[nH]ccc5c4)c3)CC2)=C(c2ccc(Cl)cc2)C1 [Venetoclax]; conditions: max 1 µM
Procedure, shortened: as §1

Dasatinib = compound: CC1=C(C(=CC=C1)Cl)NC(=O)C2=CN=C(S2)NC3=CC(=NC(=N3)C)N4CCN(CC4)CCO [Dasatinib]; conditions: max 2 µM
Procedure, shortened: as §1

SG3199 = compound: CC1=CN2[C@@H](C1)C=NC3=CC(=C(C=C3C2=O)OC)OCCCCCOC4=C(C=C5C(=C4)N=C[C@@H]6CC(=CN6C5=O)C)OC [SG3199]; conditions: max 0.001 µM
Procedure, shortened: as §1

AZD2811 = compound: CCN(CCO)CCCOc1ccc2c(Nc3cc(CC(=O)Nc4cccc(F)c4)[nH]n3)ncnc2c1 [AZD2811]; conditions: max 1 µM
Procedure, shortened: as §1

SN-38 = compound: CCc1c2c(nc3ccc(O)cc13)-c1cc3c(c(=O)n1C2)COC(=O)[C@]3(O)CC [SN-38]; conditions: max 0.3 µM
Procedure, shortened: as §1

AZD0156 = compound: CN(C)CCCOc1ccc(-c2ccc3ncc4c(c3c2)n(C2CCOCC2)c(=O)n4C)cn1 [AZD0156]; conditions: max 3 µM
Procedure, shortened: as §1

AZD4320 = compound: CN(CC[C@H](CSC1=CC=CC=C1)NC2=C(C=C(C=C2)S(=O)(=O)NC(=O)C3=CC=C(C=C3)N4CCC(CC4)[C@H](C5=CC=CC=C5C6=CC=C(C=C6)Cl)O)S(=O)(=O)C(F)(F)F)CCO [AZD4320]; conditions: max 1 µM
Procedure, shortened: as §1

Alisertib = compound: COc1cc(Nc2ncc3c(n2)-c2ccc(Cl)cc2C(c2c(F)cccc2OC)=NC3)ccc1C(=O)O [Alisertib]; conditions: max 10 µM
Procedure, shortened: as §1

Etoposide = compound: COc1cc([C@@H]2c3cc4c(cc3[C@@H](O[C@@H]3O[C@@H]5CO[C@@H](C)O[C@H]5[C@H](O)[C@H]3O)[C@H]3COC(=O)[C@H]23)OCO4)cc(OC)c1O [Etoposide]; conditions: max 10 µM
Procedure, shortened: as §1

Gefitinib = compound: COc1cc2ncnc(Nc3ccc(F)c(Cl)c3)c2cc1OCCCN1CCOCC1 [Gefitinib]; conditions: max 10 µM
Procedure, shortened: as §1

Prexasertib = compound: COc1cccc(OCCCN)c1-c1cc(Nc2cnc(C#N)cn2)n[nH]1 [Prexasertib]; conditions: max 1 µM
Procedure, shortened: as §1

Doxorubicin = compound: COc1cccc2c1C(=O)c1c(O)c3c(c(O)c1C2=O)C[C@@](O)(C(=O)CO)C[C@@H]3O[C@H]1C[C@H](N)[C@H](O)[C@H](C)O1 [Doxorubicin]; conditions: max 1 µM
Procedure, shortened: as §1

AZD5153 = compound: COc1nnc2ccc(N3CCC(c4ccc(OCCN5CCN(C)C(=O)[C@H]5C)cc4)CC3)nn12 [AZD5153]; conditions: max 1 µM
Procedure, shortened: as §1

Lapatinib = compound: CS(=O)(=O)CCNCc1ccc(-c2ccc3ncnc(Nc4ccc(OCc5cccc(F)c5)c(Cl)c4)c3c2)o1 [Lapatinib]; conditions: max 10 µM
Procedure, shortened: as §1

AZD8186 = compound: C[C@@H](Nc1cc(F)cc(F)c1)c1cc(C(=O)N(C)C)cc2c(=O)cc(N3CCOCC3)oc12 [AZD8186]; conditions: max 10 µM
Procedure, shortened: as §1

Crizotinib = compound: C[C@@H](Oc1cc(-c2cnn(C3CCNCC3)c2)cnc1N)c1c(Cl)ccc(F)c1Cl [Crizotinib]; conditions: max 10 µM
Procedure, shortened: as §1

Savolitinib = compound: C[C@@H](c1ccc2nccn2c1)n1nnc2ncc(-c3cnn(C)c3)nc21 [Savolitinib]; conditions: max 1 µM
Procedure, shortened: as §1

AZD6738 = compound: C[C@@H]1COCCN1C2=NC(=NC(=C2)C3(CC3)[S@](=N)(=O)C)C4=C5C=CNC5=NC=C4 [AZD6738]; conditions: max 10 µM
Procedure, shortened: as §1

AZD5991 = compound: Cc1c2c(nn1C)CSCc1cc(n(C)n1)CSc1cc(c3ccccc3c1)OCCCc1c(C(=O)O)n(C)c3c-2c(Cl)ccc13 [AZD5991]; conditions: max 1 µM
Procedure, shortened: as §1

AZD7648 = compound: Cc1cc2ncnn2cc1Nc1ncc2c(n1)n(C1CCOCC1)c(=O)n2C [AZD7648]; conditions: max 10 µM
Procedure, shortened: as §1

Taselisib = compound: Cc1nc(-c2cn3c(n2)-c2ccc(-c4cnn(C(C)(C)C(N)=O)c4)cc2OCC3)n(C(C)C)n1 [Taselisib]; conditions: max 10 µM
Procedure, shortened: as §1

Selumetinib = compound: Cn1cnc2c(F)c(Nc3ccc(Br)cc3Cl)c(C(=O)NOCCO)cc21 [Selumetinib]; conditions: max 10 µM
Procedure, shortened: as §1

SRA737 = compound: N#Cc1cnc(Nc2cc(NC[C@H]3CNCCO3)c(C(F)(F)F)cn2)cn1 [SRA737]; conditions: max 10 µM
Procedure, shortened: as §1

MK-2206 = compound: NC1(c2ccc(-c3nc4ccn5c(=O)[nH]nc5c4cc3-c3ccccc3)cc2)CCC1 [MK-2206]; conditions: max 10 µM
Procedure, shortened: as §1

Gemcitabine = compound: Nc1ccn([C@@H]2O[C@H](CO)[C@@H](O)C2(F)F)c(=O)n1 [Gemcitabine]; conditions: max 0.3 µM
Procedure, shortened: as §1

[1] = compound: O=C(Nc1ccc2[nH]nc(-c3ccncc3)c2c1)[C@@H]1CCN(CC(=O)N2CCN(c3ccc(-c4ncccn4)cc3)CC2)C1; conditions: max 5 µM
Procedure, shortened: as §1

Olaparib = compound: O=C(c1cc(Cc2n[nH]c(=O)c3ccccc23)ccc1F)N1CCN(C(=O)C2CC2)CC1 [Olaparib]; conditions: max 10 µM
Procedure, shortened: as §1

5-Fluorouracil = compound: O=c1[nH]cc(F)c(=O)[nH]1 [5-Fluorouracil]; conditions: max 20 µM
Procedure, shortened: as §1

Cell Line	IC50, cell viability 72 h (Carboplatin) [µM]	IC50, cell viability 72 h (AZD5363) [µM]	IC50, cell viability 72 h (AZD1775) [nM]	IC50, cell viability 72 h (Trametinib) [nM]	IC50, cell viability 72 h (Paclitaxel) [nM]	IC50, cell viability 72 h (Palbociclib) [µM]	IC50, cell viability 72 h (AZD1390) [nM]	IC50, cell viability 72 h (Venetoclax) [nM]	IC50, cell viability 72 h (Dasatinib) [nM]	IC50, cell viability 72 h (SG3199) [nM]	IC50, cell viability 72 h (AZD2811) [nM]	IC50, cell viability 72 h (SN-38) [nM]	IC50, cell viability 72 h (AZD0156) [nM]	IC50, cell viability 72 h (AZD4320) [nM]	IC50, cell viability 72 h (Alisertib) [µM]	IC50, cell viability 72 h (Etoposide) [µM]	IC50, cell viability 72 h (Gefitinib) [µM]	IC50, cell viability 72 h (Prexasertib) [nM]	IC50, cell viability 72 h (Doxorubicin) [nM]	IC50, cell viability 72 h (AZD5153) [nM]	IC50, cell viability 72 h (Lapatinib) [µM]	IC50, cell viability 72 h (AZD8186) [µM]	IC50, cell viability 72 h (Crizotinib) [µM]	IC50, cell viability 72 h (Savolitinib) [nM]	IC50, cell viability 72 h (AZD6738) [µM]	IC50, cell viability 72 h (AZD5991) [nM]	IC50, cell viability 72 h (AZD7648) [µM]	IC50, cell viability 72 h (Taselisib) [µM]	IC50, cell viability 72 h (Selumetinib) [µM]	IC50, cell viability 72 h (SRA737) [µM]	IC50, cell viability 72 h (MK-2206) [µM]	IC50, cell viability 72 h (Gemcitabine) [nM]	IC50, cell viability 72 h [1] [µM]	IC50, cell viability 72 h (Olaparib) [µM]	IC50, cell viability 72 h (5-Fluorouracil) [µM]
NCI-H1435 (Non-Small Cell Lung Carcinoma)	> 10	> 10	> 3000	> 1000	> 3000	> 10	> 300	> 1000	> 2000	> 1	> 1000	> 300	> 3000	621	> 10	> 10	> 10	> 1000	> 1000	> 1000	> 10	> 10	> 10	> 1000	> 10	> 1000	> 10	> 10	> 10	> 10	> 10	> 300	> 5	> 10	> 20
NCI-H1648 (Lung Adenocarcinoma)	> 10	9.59	1310	28.9	12.4	> 10	> 300	> 1000	373	> 1	> 1000	59.6	> 3000	> 1000	7.89	> 10	2.34	156	> 1000	203	1.99	> 10	8.99	> 1000	4.85	> 1000	> 10	0.146	> 10	> 10	9.83	> 300	> 5	> 10	> 20
NCI-H2009 (Lung Adenocarcinoma)	> 10	> 10	1020	407	162	> 10	> 300	> 1000	> 2000	> 1	> 1000	190	> 3000	> 1000	8.1	> 10	> 10	846	> 1000	> 1000	> 10	> 10	> 10	> 1000	> 10	> 1000	> 10	6.38	> 10	> 10	> 10	> 300	> 5	> 10	> 20
NCI-H2023 (Non-Small Cell Lung Carcinoma)	> 10	> 10	2020	> 1000	531	> 10	> 300	> 1000	> 2000	> 1	> 1000	110	> 3000	> 1000	> 10	> 10	> 10	30.6	225	> 1000	> 10	> 10	> 10	> 1000	3.5	> 1000	> 10	3.87	> 10	> 10	> 10	134	> 5	> 10	11.9
NCI-H2452 (Mesothelioma)	> 10	> 10	710	> 1000	97	> 10	> 300	> 1000	531	> 1	> 1000	> 300	> 3000	> 1000	8.63	> 10	> 10	244	> 1000	> 1000	> 10	> 10	> 10	> 1000	> 10	> 1000	> 10	> 10	> 10	> 10	> 10	> 300	> 5	> 10	> 20
